Assay results from ChEMBL document CHEMBL3286274, “Investigation of a novel series of 2-hydroxyisoquinoline-1,3(2H,4H)-diones as human immunodeficiency virus type 1 integrase inhibitors” (J Med Chem, 2014).
The source made the active and inactive calls. No cut-off for these calls is given here.

Legend:
[1] = in vitro; conditions: human, MT4 cells infected with HIV-1 3B
Description: Therapeutic index, ratio of CC50 for human MT4 cells infected with HIV-1 3B to EC50 for HIV-1 3B infected in human MT4 cells

[2] = biological target: Human immunodeficiency virus type 1 integrase (Human immunodeficiency virus 1, UniProt Q7ZJM1); assay: Inhibition of HIV-1 overall integrase activity using 5'-digoxigenin-labeled GACCCTTTTAGTCAGTGTGGAAAATCTCTAGCAGT-3' as substrate after 1 hr by ELISA
[3] = biological target: Human immunodeficiency virus type 1 reverse transcriptase (Human immunodeficiency virus 1) (UniProt Q72547); assay: Inhibition of recombinant HIV-1 reverse transcriptase-associated RNase H activity using [3H]-labeled RNA as substrate at 10 uM after 10 mins relative to control
[4] = tested on: Human immunodeficiency virus 1; assay: Antiviral activity against HIV-1 3B infected in human MT4 cells assessed as protection against virus-induced cytopathic effect by MTT assay; assay type: functional, organism-based; conditions: Human immunodeficiency virus 1, 3B
[5] = Cytotoxicity against human MT4 cells infected with HIV-1 3B assessed as reduction in cell viability by MTT assay; assay type: cell-based
[6] = tested on: Human immunodeficiency virus 1; assay: Antiviral activity against HIV-1 3B infected in human MT4 cells assessed as inhibition of p24 antigen production by measuring time delay in loss of compound activity at 50 to 100 times EC50 by ELISA; assay type: functional
[7] = tested on: Human immunodeficiency virus 1; assay: Resistance ratio of EC50 for raltegravir-resistant HIV1 harboring integrase Q148H mutant to EC50 for wild type HIV1; assay type: functional
[8] = tested on: Human immunodeficiency virus 1; assay: Antiviral activity against HIV-1 3B infected in human MT4 cells assessed as inhibition of p24 antigen production at 50 to 100 times EC50 treated for 1 to 25 hrs measured at 30 hrs by ELISA; assay type: functional, organism-based
[9] = tested on: Human immunodeficiency virus 1; assay: Resistance ratio of EC50 for raltegravir-resistant HIV1 harboring integrase N155H mutant to EC50 for wild type HIV1; assay type: functional
[10] = tested on: Human immunodeficiency virus 1; assay: Resistance ratio of EC50 for raltegravir-resistant HIV1 harboring integrase G140S/Q148H double mutant to EC50 for wild type HIV1; assay type: functional
[11] = tested on: Human immunodeficiency virus 1; assay: Resistance ratio of EC50 for raltegravir-resistant HIV1 harboring integrase E92Q mutant to EC50 for wild type HIV1; assay type: functional
[12] = n-octanol-PBS partition coefficient, log D of the compound at pH 7.4; assay type: physicochemical
[13] = biological target: Human immunodeficiency virus type 1 reverse transcriptase (Human immunodeficiency virus 1, UniProt Q72547); assay: Inhibition of recombinant HIV-1 reverse transcriptase-associated RNase H activity using [3H]-labeled RNA as substrate after 10 mins

Structure (SMILES)	selectivity ratio [1]	IC50 [2]	inhibition [3]	EC50 [4]	CC50 [5]	other results
O=C(NCc1ccc(F)cc1)C1C(=O)N(O)C(=O)c2cc(F)ccc21 (stereo not drawn)	162	240 nM	21.9%	730 nM	116000 nM	
O=C(Nc1ccccc1)c1c(O)n(O)c(=O)c2cc([N+](=O)[O-])ccc12	679	10 nM	60%	170 nM	115000 nM	
O=C(Nc1ccc2c(c1)C(=O)N(O)C(=O)C2C(=O)NCc1ccc(F)cc1)c1ccccc1 (stereo not drawn)		80 nM	41.2%	> 21000 nM	21000 nM	
O=C(NCc1ccccc1)c1c(O)n(O)c(=O)c2cc([N+](=O)[O-])ccc12	564	10 nM	69.1%	210 nM	118000 nM	
O=C(Cc1cccs1)Nc1ccc2c(c1)C(=O)N(O)C(=O)C2C(=O)NCc1ccc(F)cc1 (stereo not drawn)		60 nM	28.9%	> 41000 nM	41000 nM	
Cc1cn([C@H]2C[C@H](N=[N+]=[N-])[C@@H](CO)O2)c(=O)[nH]c1=O [ZIDOVUDINE]						Time [6]: 4 h
O=C(Nc1ccc2c(c1)C(=O)N(O)C(=O)C2C(=O)NCc1ccc(F)cc1)c1ccccn1 (stereo not drawn)		160 nM		> 1200 nM	1000 nM	
O=C(NCc1ccc(F)cc1)c1c(O)n(O)c(=O)c2ccc([N+](=O)[O-])cc12	> 463	30 nM	48.2%	270 nM	> 125000 nM	
O=C(NCCc1ccc(F)cc1)c1c(O)n(O)c(=O)c2cc([N+](=O)[O-])ccc12	> 262	60 nM		950 nM	> 250000 nM	
CCCCCCNC(=O)c1c(O)n(O)c(=O)c2cc([N+](=O)[O-])ccc12	> 59	60 nM	49%	4210 nM	> 250000 nM	
COc1ccc2c(c1)C(=O)N(O)C(=O)C2C(=O)NCc1ccc(F)cc1 (stereo not drawn)	3	260 nM	15.5%	6500 nM	21000 nM	
CC(C)c1nc(CN(C)C(=O)N[C@H](C(=O)N[C@@H](Cc2ccccc2)C[C@H](O)[C@H](Cc2ccccc2)NC(=O)OCc2cncs2)C(C)C)cs1 [RITONAVIR]						Time [6]: 25 h
O=C(NCc1ccc(F)cc1)C1C(=O)N(O)C(=O)c2cc(Cl)ccc21 (stereo not drawn)		140 nM	26.3%	4190 nM	106000 nM	
O=C(NCc1ccc(F)cc1)C1C(=O)N(O)C(=O)c2c(F)cccc21 (stereo not drawn)	33	880 nM	31.6%	4460 nM	149000 nM	
CC(=O)Nc1ccc2c(c1)C(=O)N(O)C(=O)C2C(=O)NCc1ccc(F)cc1 (stereo not drawn)	5	100 nM	25.2%	29300 nM	149000 nM	
O=C(Nc1ccc(F)cc1)c1c(O)n(O)c(=O)c2cc([N+](=O)[O-])ccc12	981	30 nM		190 nM	186000 nM	
COc1ccc(CNC(=O)c2c(O)n(O)c(=O)c3cc([N+](=O)[O-])ccc23)cc1	> 84	10 nM	67.2%	2970 nM	> 250000 nM	
N#Cc1ccc2c(C(=O)NCc3ccc(F)cc3)c(O)n(O)c(=O)c2c1	> 187	70 nM		670 nM	> 125000 nM	
Nc1ccc2c(c1)C(=O)N(O)C(=O)C2C(=O)NCc1ccc(F)cc1 (stereo not drawn)	10	110 nM	29.4%	23300 nM	253000 nM	
O=C(Cc1ccccc1)Nc1ccc2c(c1)C(=O)N(O)C(=O)C2C(=O)NCc1ccc(F)cc1 (stereo not drawn)		230 nM	46.4%	> 31000 nM	31000 nM	
O=C(NCc1ccc(F)cc1)C1C(=O)N(O)C(=O)c2ccc(F)cc21 (stereo not drawn)	39	240 nM	24.5%	3160 nM	123000 nM	
O=C(NCc1ccc(F)cc1)C1C(=O)N(O)C(=O)c2cc(C(F)(F)F)ccc21 (stereo not drawn)	> 94	20 nM	25.5%	600 nM	> 56000 nM	
O=C(NCc1ccc(F)cc1)c1c(O)n(O)c(=O)c2ccccc12						Ratio EC50 [7]: 1; inhibition [8]: Active; Ratio EC50 [9]: 1; Ratio EC50 [10]: 1; Ratio EC50 [11]: 1; logD [12]: 0.56
O=C(NCc1ccc(F)cc1)c1c(O)n(O)c(=O)c2cc([N+](=O)[O-])ccc12		10 nM	78.7%			IC50 [13]: 4800 nM
O=C(NCc1ccc(F)cc1)C1C(=O)N(O)C(=O)c2cc(Br)ccc21 (stereo not drawn)	33	60 nM	38.7%	2990 nM	99500 nM	
Cc1nnc(C(=O)NC(C)(C)c2nc(C(=O)NCc3ccc(F)cc3)c(O)c(=O)n2C)o1					> 8000 nM	
